Measured values reported in patent publication US20250034171A1, “IMIDAZOPYRIDINE AMIDES AND RELATED COMPOUNDS FOR USE IN THE TREATMENT OF BACTERIAL INFECTIONS” (priority 2021, published 2025).
Values after ≈ are worked out from the molar mass of the structure shown. Read-outs that look alike come from different tables or passages of the source.

Assays:
[1] = Metabolic stability in liver microsomes (intrinsic clearance); type: in vitro ADME
Procedure: The test compound was incubated under the generic condition (0.5 mg/ml microsomal protein, 1 mM NADPH, 1 mM MgCl2, and 0.1 M phosphate buffer, pH 7.4, 37° C.) at a defined substrate concentration (typically 1 μM) in liver microsomes of selected species across a time course (typically 0, 5, 10, 20, 40 and 60 minutes) at Cyprotex (Cheshire, UK). The liver microsomes, buffer and test compound will be pre-incubated for 5 minutes. The addition of the co-factor NADPH will initiate the reaction and the reaction was terminated by addition of acetonitrile. The samples were centrifuged prior to analysis by LC-MS/MS analysis. The relative amount of parent compound remaining in the active incubations vs. the control incubations (t=0 mins) for each compound was measured by peak area comparison. The in vitro metabolic half-life (t1/2) was calculated using the slope of the log-linear regression from the percentage parent compound remaining versus time relationship (κ), The in vitro intrinsic clearance (Cl^int) (μl/min/mg microsomal protein) was calculated using the in vitro metabolic half-life, incubation volume and the weight of microsomal protein in the incubation.

[2] = system: Mycobacterium tuberculosis strain H37Rv; test: Test 2: MIC determination against M. tuberculosis, resazurin fluorescence; type: cell-based; conditions: Test 2, M. tuberculosis H37Rv; for MIC90: read-out: Bacterial activity MIC90; for IC50: read-out: Bacterial activity pMIC50 (converted)
[3] = HTChem stab assay (chemical stability in buffer pH2, pH4 and pH7 vs DMSO reference); type: physicochemical
Procedure: HTChem stab assay was used to assess the chemical stability of the compounds. 72 h stirring at rt in a buffer pH2, pH4 and pH7 vs a reference DMSO solution. HTChem stab assay is based on the handbook of Pharmaceutical Stress Testing, Predicting Drug Degradation, second edition, authors Baertschi, Alsante, Reed ISBN 978-143980179-6.
Compounds were plated (1 μl 10 mM DMSO stock in 96 well plate (DMSO control+3 pH conditions), one plate per condition).
200 μL of respectively DMSO, Buffer/DMSO mix pH2, Buffer/DMSO mix pH4 and Buffer/DMSO mix pH7 was added.
After 72 h shaking (300 rpm) at room temperature the samples were analysed by LC/UV/MS. Chromatograms of samples (stability conditions) were compared with the chromatograms of control sample (DMSO). Extra peaks were flagged and identified by mass spectrometry. Sample purity (reference included) were reported.
• pH3 buffer: For 11; weigh 4.14 g NaH2PO4·H2O, add 600 ml H2O, add H3PO4 to pH3, add H2O to 1000 ml. Filter over 0.2 μm and store at 4° C. Expires after 30 days. • pH6 buffer: For 1 l; weigh 4.14 g NaH2PO4·H2O, add 600 ml H2O, add 1N NaOH to pH6, add H2O to 1000 ml. Filter over […] and store at 4° C. Expires after 30 days.
• pH2 Buffer/DMSO (StabSolvent): mix 2 parts of HCl 0.1N with 1 part of DMSO • pH4 Buffer/DMSO (StabSolvent): mix 2 parts of buffer pH3 with 1 part of DMSO • pH7 Buffer/DMSO (StabSolvent): mix 2 parts of buffer pH6 with 1 part of DMSO measure pH prior to use.
Instrument: Acquity UPLC; Column: Acquity HSS T3, 50 mm length×2.1 mm i.d., 1.8 μm particle size. Detectors: PDA (250-350 nm) and SQD2 (90-1500m/z). Mobile phase A: 0.1% Formic acid in water; Mobile phase B: 0.1% Formic acid in Acetonitrile.
Injection volume: 5 μL, flow rate 0.6 mL/min.
Data processing including peak integration and identification was done with Waters OpenLynx software.

[4] = system: Salmonella typhimurium Ames II Mixed Strains (TA7001-TA7006) and TA98; test: Genotoxicity assay (AmesIIb mutagenicity test); type: cell-based; also: key: an AmesIIb score of 1 shows no genotoxicity signals
Source text: The aim is to evaluate compounds (and/or their metabolites) for their ability to induce reverse mutations in a gene of histidine-requiring Salmonella typhimurium strains to produce histidine-independent strains of these bacteria, in the absence and in the presence of a mammalian metabolic activation system.
Point mutations were made in the histidine (His) operon in Salmonella typhimurium, rendering the bacteria incapable of producing histidine. These single base substitutions are positioned at strategic points within the His gene, resulting in his-organisms that cannot grow unless histidine is supplied. When a mutagenic event occurs, base substitutions within the His gene then cause the reversion of the his-Ames II™ strains to His.
A chemical's mutagenic potential is assessed by exposing these his-organisms to varying concentrations of chemical and selecting for the reversion event. Medium lacking histidine is used for this selection which allows only those cells that have undergone the his- to His reversion to survive and grow.
The assay may be performed using a kit and instructions from Xenometric. The two strains provided in the Xenometric kit are the Ames II™ Mixed Strains and TA98. The Ames II™ Mixed Strains contains an equimolar mixture of the Ames II™ TA7001-TA7006 strains. Individually, these strains are designed to revert by only one specific base-pair substitution out of six possible changes. Thus, when mixed, all six base substitution mutations can be represented in one culture. This kit also contains TA98 for the detection of frameshift mutations.

[5] = buffer pH2/DMSO, 72 h stirring at rt
[6] = buffer pH4/DMSO, 72 h stirring at rt
[7] = buffer pH7/DMSO, 72 h stirring at rt
[8] = reference DMSO solution, 72 h stirring at rt
[9] = mouse, microsomes, pH 7.4, Metabolic Stability Half life (mouse, min.)
[10] = mouse, microsomes, pH 7.4, mouse liver microsomes, read-out: Metabolic Stability (liver microsome intrinsic clearance) Clearance (mouse, μl/min./mg protein)
[11] = Mycobacterium tuberculosis, H37RV

Row | SMILES | Bacterial activity pMIC50 [2] | MIC90 [2] [µM] | MIC90 [2, 11] [µM] | IC50 [2, 11] [pM] | Chemical stability data, Vehicle DMSO ([3]; 72 h, 50 µM) [%] | Chemical stability data, Buffer pH2 ([3]; 72 h, 50 µM, pH 2) [%] | Chemical stability data, Buffer pH4 ([3]; 72 h, 50 µM, pH 4) [%] | Chemical stability data, Buffer pH7 ([3]; 72 h, 50 µM, pH 7) [%] | further results
1 | CCc1nc2cc(F)ccn2c1C(=O)NCc1ccc(-c2nc3n(n2)CCC(C(F)(F)F)C3)cc1 (racemic) [Compound 7ab] | 8.362 | 0.014 (≈ 6.81 ng/mL) |  |  |  |  |  |  | Metabolic Stability (liver microsome intrinsic clearance) Clearance (mouse, μl/min./mg protein) ([1]; mouse liver microsomes): 20.5 μl/min./mg protein; Metabolic Stability Half life (mouse, min.) ([1]; mouse liver microsomes): 1.13 h; Chemical stability data, Buffer pH2 [3, 5]: 100%; Chemical stability data, Buffer pH4 [3, 6]: 100%; Chemical stability data, Buffer pH7 [3, 7]: 100%; Chemical stability data, Vehicle DMSO [3, 8]: 100%
2 | CCc1nc2ncc(C)cn2c1C(=O)NCc1ccc(-c2nc3n(n2)CCC(C(F)(F)F)C3)cc1 (single isomer, unassigned) [Compound 1a] |  |  | 0.009 (≈ 4.35 ng/mL) | 3130 | 100 | 100 | 100 | 100 | half-life at 1 µM ([1]; human, microsomes, pH 7.4, Metabolic Stability Half life (human, min.)): > 3 h; microsomal CLint at 1 µM ([1]; human, microsomes, pH 7.4, human liver microsomes, read-out: Metabolic Stability (liver microsome intrinsic clearance) Clearance (human, μl/min./mg protein)): < 7.7 µL/min/mg; half-life at 1 µM [1, 9]: > 3 h; microsomal CLint at 1 µM [1, 10]: < 7.7 µL/min/mg
3 | O=C(NCc1ccc(-c2nc3n(n2)CCC(C(F)(F)F)C3)cc1)c1c(C(F)(F)F)nc2ncccn12 (single isomer, unassigned) [Compound 2a] | 7.648 | 0.086 (≈ 43.8 ng/mL) |  |  |  |  |  |  | Metabolic Stability (liver microsome intrinsic clearance) Clearance (human, μl/min./mg protein) ([1]; human, microsomes): <7.7 μl/min./mg protein; Metabolic Stability Half life (human, min.) ([1]; human, microsomes): >3 h; Metabolic Stability (liver microsome intrinsic clearance) Clearance (mouse, μl/min./mg protein) ([1]; mouse, microsomes): 11.4 μl/min./mg protein; Metabolic Stability Half life (mouse, min.) ([1]; mouse, microsomes): 2.02 h; GeneTox AmesIIb Score [4]: 1
4 | O=C(NCc1ccc(-c2nc3n(n2)CCC(C(F)(F)F)C3)cc1)c1c(C(F)(F)F)nc2ncccn12 (single isomer, unassigned) [Compound 2b] | 7.502 | 0.098 (≈ 49.9 ng/mL) |  |  |  |  |  |  | Metabolic Stability (liver microsome intrinsic clearance) Clearance (human, μl/min./mg protein) ([1]; human, microsomes): <7.7 μl/min./mg protein; Metabolic Stability Half life (human, min.) ([1]; human, microsomes): >3 h; Metabolic Stability (liver microsome intrinsic clearance) Clearance (mouse, μl/min./mg protein) ([1]; mouse, microsomes): 12.3 μl/min./mg protein; Metabolic Stability Half life (mouse, min.) ([1]; mouse, microsomes): 1.87 h; GeneTox AmesIIb Score [4]: 1
5 | CCc1nc2ncc(C)cn2c1C(=O)NCc1ccc(-c2cn3c(n2)CC(C(F)(F)F)CC3)cc1 (single isomer, unassigned) [Compound 3b] | 8.483 | 0.010 (≈ 4.83 ng/mL) |  |  |  |  |  |  | Metabolic Stability (liver microsome intrinsic clearance) Clearance (human, μl/min./mg protein) ([1]; human, microsomes): 26.1 μl/min./mg protein; Metabolic Stability Half life (human, min.) ([1]; human, microsomes): 0.887 h; Metabolic Stability (liver microsome intrinsic clearance) Clearance (mouse, μl/min./mg protein) ([1]; mouse, microsomes): 23.8 μl/min./mg protein; Metabolic Stability Half life (mouse, min.) ([1]; mouse, microsomes): 0.972 h; GeneTox AmesIIb Score [4]: 1
6 | CCc1nc2nc(C)ccn2c1C(=O)NCc1ccc(-c2nc3n(n2)CCC(C(F)(F)F)C3)cc1 (stereo not shown) [Compound 5b] | 7.873 | 0.044 (≈ 21.3 ng/mL) |  |  |  |  |  |  | Metabolic Stability (liver microsome intrinsic clearance) Clearance (mouse, μl/min./mg protein) ([1]; mouse, microsomes): <7.7 μl/min./mg protein; Metabolic Stability Half life (mouse, min.) ([1]; mouse, microsomes): >3 h; GeneTox AmesIIb Score [4]: 1
7 | CCc1nc2ncc(CN)cn2c1C(=O)NCc1ccc(-c2nc3n(n2)CCC(C(F)(F)F)C3)cc1 (stereo not shown) [Compound 16ab] |  |  |  | > 500000 | 77 | 74 | 74 | 80 | 
8 | CCc1nc2ncc(C)cn2c1C(=O)NCc1ccc(-c2nc3n(c2C)CCC(C(F)(F)F)C3)cc1 (stereo not shown) [Compound 19ab] |  |  | 0.047 (≈ 23.3 ng/mL) | 11500 | 98 | 98 | 98 | 98 | 
9 | CCc1nc2ncc(C)cn2c1C(=O)NCc1ccc(-c2nn3c(c2C)CC(C(F)(F)F)CC3)cc1 (stereo not shown) [Compound 21ab] |  |  | 0.011 (≈ 5.46 ng/mL) | 3490 | 100 | 100 | 100 | 100 | 
10 | CCc1nc2ncc(C)cn2c1C(=O)NCc1ccc(-c2nc3n(n2)CCC(C2CC2)C3)cc1 (stereo not shown) [Compound 27ab] |  |  | 0.014 (≈ 6.38 ng/mL) | 4610 | 100 | 100 | 100 | 100 | 
11 | CCCC1CCn2nc(-c3ccc(CNC(=O)c4c(CC)nc5ncc(C)cn45)cc3)nc2C1 (stereo not shown) [Compound 28ab] |  |  | 0.011 (≈ 5.03 ng/mL) | 3660 | 100 | 100 | 100 | 100 | 
12 | CCc1nc2ncc(C)cn2c1C(=O)NCc1ccc(-c2nc3n(n2)CCCC3)c(F)c1 [Compound 32ab] |  |  | 0.248 (≈ 108 ng/mL) | 79800 | 100 | 100 | 100 | 100 | 
13 | CCc1nc2ncc(C)cn2c1C(=O)NCc1ccc(-c2nc3n(n2)CCC(OC(F)(F)F)C3)cc1 (stereo not shown) [Compound 33ab] |  |  | 0.039 (≈ 19.5 ng/mL) | 12700 | 100 | 64 | 100 | 100 | 
14 | O=C(NCc1ccc(-c2cn3c(n2)CC(C(F)(F)F)CC3)nc1)c1c(C(F)(F)F)nc2ccccn12 (stereo not shown) [Compound 36ab] | <6.301 |  |  |  |  |  |  |  | Chemical stability data, Buffer pH2 [3, 5]: 100%; Chemical stability data, Buffer pH4 [3, 6]: 100%; Chemical stability data, Buffer pH7 [3, 7]: 100%; Chemical stability data, Vehicle DMSO [3, 8]: 100%
15 | CCc1nc2ncc(C)cn2c1C(=O)NCc1ccc(-c2nc3n(n2)CCC(C(F)(F)F)C3)c(C)n1 (stereo not shown) [Compound 37] |  |  | 0.0035 (≈ 1.74 ng/mL) | 12600 |  |  |  |  | half-life at 1 µM [1, 9]: > 2.8 h; microsomal CLint at 1 µM [1, 10]: < 7.7 µL/min/mg; GeneTox AmesIIb Score ([4]; Salmonella typhimurium): 1
16 | CCc1nc2ncc(C)cn2c1C(=O)NCc1cc(C)c(-c2nc3n(n2)CCC(C(F)(F)F)C3)cn1 (stereo not shown) [Compound 38] |  |  | 0.052 (≈ 25.9 ng/mL) | 17000 |  |  |  |  | half-life at 1 µM [1, 9]: > 3 h; microsomal CLint at 1 µM [1, 10]: < 7.7 µL/min/mg; GeneTox AmesIIb Score ([4]; Salmonella typhimurium): 1
